Entries after “also recorded” stand apart in the source; their conditions may differ. Peptide text beside a SMILES is read from it.
Legend:
CD4 = molecular target: T1, CD4 (Homo sapiens, UniProt P01730); test: CD4 competitive binding assay (FITC anti-human CD4 antibody, SUP-T1 cells); details: for inhibition at 100 µM / Inhibition at 100 μM (%): inhibition of anti-human CD4 antibody binding to SUP-T1 cells; for PInhibition (Experimental Data): transformed from % inhibition at 100 μM, presented as -ln
T1 construct: endogenous in cells; host or cells: SUP-T1 cells
Method: We chose CD4-expressing SUP-T1 cells to perform the competitive CD4 binding assay. Non-labeled anti-human CD4 antibody (RPA-T4 clone, BioLegend, San Diego, CA, USA) was used as a positive control.
The SUP-T1 cells were cultured in RPMI1640 medium supplemented with 10% (v/v) fetal bovine serum (FBS), 100 IU penicillin, 0.1 mg/mL streptomycin, and 2 mM L-glutamine. After collecting and washing twice with fluorescence activated cell sorting (FACS) buffer (0.5% BSA, 0.05% sodium azide in PBS) by centrifugation, SUP-T1 cells were seeded in a 96-well v-bottom plate at 5 × 10^5 cells/well. The supernatant was discarded by centrifugation and the cell pellet was resuspended with 50 μL various 2× concentrations of test compounds and 50 μL fluorescein isothiocyanate (FITC) labeled anti-human CD4 antibody (RPA-T4 clone, BioLegend, San Diego, CA, USA). The plate was incubated for 40 min on ice. After incubation, the cells were washed twice with FACS buffer by centrifugation, and then resuspended with the assay buffer. The FACS buffer was added at a volume of 50 μL per well. The fluorescence (485EX/528EM) was recorded using a Synergy II plate reader (BioTek Instruments, Inc., Winooski, VT, USA). Experimental data were generated in duplicate each time, and from at least three independent experiments. The mean values of fluorescence were normalized and expressed as a percentage of the control group values. Binding curves and IC50 values were calculated by GraphPad Prism 7 (GraphPad Software Inc., La Jolla, CA, USA) and presented as the mean ± SEM.

HIV-1 (NL4-3 strain) = test: microbe, parasite or virus in culture; type: cell-based; details: Human immunodeficiency virus 1, NL43, PBMC; 0.1 μM, PBMCs; read-out: Inhibition of HIV-1 entry (intracellular p24)
Method: We also performed anti-HIV-1 entry assays to investigate the potential suppression by 3 of HIV-1 infection via its entry mechanism.
The Anti-HIV-1 entry assay was performed by measuring intercellular p24 antigen. Before the infection, PBMCs (2.5 × 10^6 cells/mL) were added into 96-well plates at 100 μL/well, then co-incubated with compounds of various concentrations for 2 h. PBMCs were then washed twice with PBS and infected with the NL4-3 strain of HIV-1 at an MOI of 0.02 for 2 h at 37 °C with 5% CO2 (CO2 incubator, Eppendorf, Hamburg, Germany). After two washes with PBS (1200 rpm, 20 °C, 5 min), the cells were re-suspended in 100 µL complete medium and incubated for 24 h. Subsequently, the PBMCs were washed and resuspended in 100 µL/well lysis buffer containing 1% protease inhibitor cocktail (Sigma-Aldrich, St. Louis, MO, USA). The intercellular p24 antigen was measured according to the protocol provided with the HIV-1 ELISA kit (PerkinElmer Inc. Waltham, MA, USA).

HIV-1 = system: HIV-1; design: method as in PMID 12207905; details: cited from earlier work
CEM-GFP cell line = test: CEM-GFP cell viability (CellTiter Blue); type: cell-based; details: highest concentration 25 µM
Excerpt: Figure 3 The competitive CD4 binding assay results of analogs of 3 (A).
We also evaluated the anti-HIV-1 infection activity of 29 using the CEM-GFP reporter cell line.

[1] = system: HIV-1 nucleocapsid-p7 protein (NC-p7); design: method as in PMID 12207905; details: cited from earlier work
HIV-1 NL4-3 strain = test: Anti-HIV-1 infection assay (CEM-GFP reporter cells, GFP fluorescence); type: cell-based; details: Human immunodeficiency virus 1, NL43, HIV-1 NL4-3, 4-5 days
Excerpt: We performed anti-HIV-1 infection and anti-HIV-1 entry assays by measuring GFP expression and intracellular p24 antigen level. For the anti-HIV-1 infection assays, the CEM-GFP reporter cell line was used, and HIV-1 infection induced a 10- to 1000-fold increase in the relative fluorescence of the cells.
The CEM-GFP cells were obtained from the NIH AIDS program (NIH AIDS Reagent Program, Division of AIDS, NIAID, NIH: CEM-GFP Cells from Dr. Jacques Corbeil) and cultured in RPMI 1640 medium containing 10% FBS, 1% penicillin-streptomycin (Life Technologies, Carlsbad, CA, USA), 1% 200 mM L-glutamine (Mediatech-VWR, Aurora, CO, USA), and 500 µg/mL G418 (BioPioneer Inc, San Diego, CA, USA). After collecting and counting, the CEM-GFP cells were infected with HIV-1 NL4-3 strain (MOI 0.01) at 37 °C for 2–3 h, cells were then washed twice with PBS, and 10^5 cells/well were seeded into a 96-well plate in the presence of different concentrations of test compounds. After culturing at 37 °C with 5% CO2 for 4 or 5 days, the GFP fluorescence (485EX/528EM) was measured using a Synergy II microplate reader (BioTek Instruments, Inc., Winooski, VT, USA).

SMILES | Inhibition at 100 μM (%) (CD4) | PInhibition (Experimental Data) (CD4) | further results
Cn1c(=O)c2c(nc(NCCNc3nc4c(c(=O)n(C)c(=O)n4C)n3C)n2C)n(C)c1=O [Compound 1] |  |  | inhibition at 100 µM (CD4): 34.2%
CSCCC(NC(=O)C(CC(C)C)NC(=O)CNC(=O)C(NC(=O)C(Cc1ccccc1)NC(=O)C(CCC(N)=O)NC(=O)C(CC(=O)O)NC(=O)C(CO)NC(=O)C(CCCCN)NC(=O)C1CCCN1C(=O)C(NC(=O)C(N)CC(=O)O)C(C)C)C(C)C)C(N)=O (stereo not drawn) [Compound 9] (H-DVPKSDQFVGLM-NH2; configuration not given here) | 6.40% | 2.835 | 
O=C(O)CCC(=O)c1ccc(Oc2ccccc2)cc1 [Compound 32] |  | 3.400 | 
O=C(O)/C=C/c1c2ccc(=O)c(O)c-2oc2c(O)c(O)ccc12 [Compound 28] |  | 4.566 | 
O=C(/C=C/c1ccccc1)CCc1c(O)c2ccccc2oc1=O [Compound 20] |  | 3.874 | 
c1cc(CN2CCCNCCNCCCNCC2)ccc1CN1CCCNCCNCCCNCC1 [AMD3100, reference compound] |  |  | inhibition at 0.1 µM (HIV-1 (NL4-3 strain)): 57.6%
Cc1cc(=O)oc2cc(O)cc(O)c12 [Compound 6] | 5.64% | 2.762 | 
Nc1ccc(S(=O)(=O)c2ccc(NCN3C(=O)NC(=O)C(=O)C3=O)cc2)cc1 [Compound 2] |  |  | inhibition at 100 µM (CD4): 36.9%
Nc1ccn([C@H]2O[C@H](CO)[C@@H]3[O][Sn]([c]4ccccc4)([c]4ccccc4)[O][C@H]32)c(=O)n1 [Compound 5] | 33.09% |  | 
CCCCCCCCCCCC(=O)c1c(O)c2ccccc2oc1=O [Compound 17] |  | 3.774 | 
N[C@@H](CSC1(c2ccc(Cl)cc2)c2ccccc2-c2ccccc21)C(=O)O [Compound 4] |  |  | inhibition at 100 µM (CD4): 22.6%
CC(=O)/C=C(\c1ccccc1)c1c(O)c2ccccc2oc1=O [Compound 15] | 15.80% | 3.273 | 
CCCCC(=O)c1c(O)c2ccccc2oc1=O [Compound 18] |  | 3.771 | 
O=C(O)/C=C/c1c2ccc(=O)c(O)c-2oc2c(O)c(O)ccc12 [Compound 29] |  | 4.763 | inhibition of HIV-1 infection (HIV-1): inhibit HIV-1 infection; Cytotoxicity in CEM-GFP cell line (CEM-GFP cell line): complete lack of cytotoxicity effect; also recorded: no cytotoxicity; binding to NC-p7 [1]: bind; IC50 (CD4; SUP-T1 cells, anti-human CD4 antibody competition): 14 µM; IC50 (HIV-1 NL4-3 strain): 2 µM
O=c1oc2c(cc1O)oc(=O)c1cc(O)c(O)c(O)c12 [Compound 31] |  |  | inhibition at 100 µM (CD4): 16%
O=c1oc2cc(O)ccc2c2c1CCCC2 [Compound 12] | 5.27% | 2.745 | 

Further lines, with some results ahead:

Inhibition at 100 μM (%) (CD4) | PInhibition (Experimental Data) (CD4) | SMILES | further results
6.48% | 2.841 | Cc1cc(=O)c2c(o1)-c1c(cc(O)c(O)c1C(=O)O)OC2 [Compound 30] | 
 | 3.809 | Cc1ccc(-c2cc(=O)c3cccc(CC(=O)O)c3o2)cc1 [Compound 22] | 
12.04% | 3.136 | CCCCC(=O)c1c(O)ccc2c(C)cc(=O)oc12 [Compound 8] | 
8.87% | 2.988 | CC(=O)c1c(O)c2ccccc2oc1=O [Compound 7] | 
 | 3.702 | O=C(O)Cc1cccc2c(=O)cc(-c3ccccc3)oc12 [Compound 21] | inhibition at 100 µM (CD4): > 20%
8.47% | 2.966 | O=c1oc2cccc(O)c2c(O)c1Cc1ccccc1 [Compound 14] | 
19.76% | 3.391 | CCC(=O)c1c(O)c2ccccc2oc1=O [Compound 16] | 
11.80% | 3.126 | CCC(=O)c1cc2ccc(O)cc2oc1=O [Compound 13] | 
 | 3.690 | O=C(O)CCc1cccc2c(=O)cc(-c3ccccc3)oc12 [Compound 23] | 
 | 4.024 | Cc1cc2c(=O)cc(-c3ccccc3)oc2c(C(=O)O)c1C [Compound 27] | 
16.98% | 3.311 | O=C(O)Cc1cc(=O)oc2cc(O)ccc12 [Compound 10] | 
 | 3.668 | O=C(O)Cc1cc(=O)oc2cc(O)ccc12 [Compound 19] | 
18.10% | 3.344 | Cc1cc(=O)c2cccc(CC(=O)O)c2o1 [Compound 26] | 
10.83% | 3.084 | Cc1cc(=O)oc2c(O)c(O)ccc12 [Compound 11] | 
 | 3.541 | O=C(O)Cc1cccc2c(=O)cc(C3CCCCC3)oc12 [Compound 25] | 
 | 3.920 | O=C(O)Cc1cccc2c(=O)cc(Cc3ccccc3)oc12 [Compound 24] | 
